Values joined by “and” are separate entries in the source; they are usually repeats but may differ in a detail not shown here. Identical values can stand only once.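 The compound was tested at five concentrations on cells cultured in 96-well plates, with a 48-hour exposure period. Here, GI50 denotes the concentration required for 50% inhibition of growth.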 Active and inactive are the calls of the source. Cut-off read from the data, not from the text of the source: active = GI50 up to about 1.1 µM and inactive = higher.
Legend:
Test in all cases: inhibition of tumour cell growth, NCI panel, 48 h
[1] = test system: DMS-273
[2] = test system: ACHN
[3] = test system: HL-60
[4] = test system: U-251
[5] = test system: HOP-62
[6] = test system: SK-MEL-5
[7] = test system: SK-MEL-28
[8] = test system: SNB-19
[9] = test system: SR
[10] = test system: NCI-H226
[11] = test system: UO-31
[12] = test system: KM12
[13] = test system: HCT-116
[14] = test system: NCI-H460
[15] = test system: NCI-H522
[16] = test system: PC-3
[17] = test system: T47D
[18] = test system: BT-549
[19] = test system: MDA-MB-435

SMILES | GI50 [1] | GI50 [2] | GI50 [3] | GI50 [4] | GI50 [5] | GI50 [6] | GI50 [7] | GI50 [8] | GI50 [9] | GI50 [10] | GI50 [11] | GI50 [12] | GI50 [13] | GI50 [14] | GI50 [15] | GI50 [16] | GI50 [17] | GI50 [18] | GI50 [19]
O=C1C=Cc2c(-c3ccccc3)oc3cccc1c23 | 5.98 µM (inactive) | 13.2 µM (inactive) | 9.12 µM (inactive) | 8.91 µM (inactive) | 13.8 µM (inactive) | 20.5 µM (inactive) | 56.9 µM (inactive) | 24 µM (inactive) | 10.1 µM (inactive) | 11.3 µM (inactive) | 6.35 µM (inactive) | 28.5 µM (inactive) | 16.9 µM (inactive) | 5.07 µM (inactive) | 15.3 µM (inactive) |  |  |  | 
COC(=O)[C@@H]1[C@H](O)[C@H](C)[C@H](O)[C@@](C)(O)/C=C\C=C(\C)C(=O)Nc2c(C)c(OC(C)=O)c3c(c2O)C(=O)C(C)=C2OCOC(=C23)/C(C)=C/[C@@](C)(O)[C@H](O)[C@@H](C)[C@H]1OC(C)=O | > 100 µM (inactive) and 60 µM (inactive) | 79.4 µM (inactive) | 20.5 µM (inactive) | 17.3 µM (inactive) | 40.5 µM (inactive) | 24.5 µM (inactive) | > 100 µM (inactive) | > 100 µM (inactive) and 91.4 µM (inactive) |  | > 100 µM (inactive) and 94.2 µM (inactive) | 25.9 µM (inactive) | 47.8 µM (inactive) | 29.2 µM (inactive) | 49 µM (inactive) | 47.2 µM (inactive) and 21.5 µM (inactive) | > 66.8 µM (inactive) |  |  | 
CCOc1ccc(/N=N/c2c(-c3ccccc3)nn(C(=O)CC(=O)Nc3ccccc3Cl)c2-c2ccccc2)cc1 | 18.3 µM (inactive) | 33.3 µM (inactive) | 25.6 µM (inactive) | 48.9 µM (inactive) | 93.8 µM (inactive) | 44.6 µM (inactive) | 27.7 µM (inactive) | > 100 µM (inactive) | 72.8 µM (inactive) | 65.9 µM (inactive) | 28.9 µM (inactive) | 46.1 µM (inactive) | 35.6 µM (inactive) | 46.5 µM (inactive) | 78 µM (inactive) |  |  |  | 
O=C1CCNC(=O)NC1 | > 100 µM (inactive) | > 100 µM (inactive) | > 100 µM (inactive) | > 100 µM (inactive) | > 100 µM (inactive) | > 100 µM (inactive) | > 100 µM (inactive) | > 100 µM (inactive) | > 100 µM (inactive) | > 100 µM (inactive) | > 100 µM (inactive) | > 100 µM (inactive) | > 100 µM (inactive) | > 100 µM (inactive) | > 100 µM (inactive) |  |  |  | 
N=C1N(c2ccccc2)C(=O)C23CCCC2C13N1CCOCC1 (centres undefined) | > 100 µM (inactive) | > 100 µM (inactive) | > 100 µM (inactive) | > 100 µM (inactive) | > 100 µM (inactive) | > 100 µM (inactive) | > 100 µM (inactive) | > 100 µM (inactive) | > 100 µM (inactive) | > 100 µM (inactive) | > 100 µM (inactive) | > 100 µM (inactive) | > 100 µM (inactive) | > 100 µM (inactive) | > 100 µM (inactive) |  |  |  | 
CCOC(=N)CC(=O)Nc1ccccc1 | > 46.5 µM (inactive) | > 46.5 µM (inactive) | > 100 µM (inactive) | > 100 µM (inactive) | > 46.5 µM (inactive) | > 46.5 µM (inactive) | > 46.5 µM (inactive) | > 100 µM (inactive) | > 39.9 µM (inactive) | > 31.6 µM (inactive) | > 46.5 µM (inactive) | > 46.5 µM (inactive) | > 46.5 µM (inactive) | > 46.5 µM (inactive) | > 100 µM (inactive) |  |  |  | 
CCCCCCC(C)CCCCCCCCCCC(=O)O (centres undefined) | > 100 µM (inactive) | > 100 µM (inactive) | > 100 µM (inactive) | > 100 µM (inactive) | > 100 µM (inactive) | > 100 µM (inactive) | > 100 µM (inactive) | > 100 µM (inactive) | > 100 µM (inactive) | > 100 µM (inactive) | > 100 µM (inactive) | 64.7 µM (inactive) | 93.5 µM (inactive) | > 100 µM (inactive) | > 100 µM (inactive) |  |  |  | 
COc1cccc2c1C(=O)c1c(O)c3c(c(O)c1C2=O)C[C@@](O)(C(=O)CO)C[C@@H]3OC1CC(N(C)C)C(O)C(C)O1 (some centres undefined) | < 0.0106 µM (active) | < 0.01 µM (active) | 0.1 µM (active) | < 0.0134 µM (active) | 0.0272 µM (active) | 0.0129 µM (active) | 0.0227 µM (active) | 0.0254 µM (active) | < 0.01 µM (active) | < 0.0149 µM (active) | 0.0204 µM (active) | < 0.016 µM (active) | < 0.01 µM (active) | < 0.01 µM (active) | < 0.011 µM (active) | < 0.01 µM (active) | < 0.01 µM (active) | 0.0537 µM (active) | < 0.01 µM (active)

Reference: ChEMBL document CHEMBL1201862, “PubChem BioAssay data set” (2004)
